# Assay results published in patent US8952024B2, “Herbicidal pyrimidone derivatives” (E I du Pont de Nemours and Company, priority 2009, dated 2015).
# Tests used:
# Assay type in all cases: in vivo
# [1] = tested on: umbrella sedge (Cyperus difformis); experiment: Test B flooded paddy test; details: for Plant response rating, Sedge, Umbrella: Flood (flooded paddy test), 13 to 15 days
# Outline: (§1)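 Ratings are visual, 0–100 (100 = complete control), taken versus untreated controls 13 to 15 days after treatment in the greenhouse. Compound went straight into paddy water held 3 cm above soil, applied to 2-leaf-stage plants of four species.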
# [2] = tested on: rice (Oryza sativa); experiment: Test B flooded paddy test; details: for Plant response rating, Rice: Flood (flooded paddy test), 13 to 15 days
# Outline: as §1
# [3] = tested on: ducksalad (Heteranthera limosa); experiment: Test B flooded paddy test; details: for Plant response rating, Ducksalad: Flood (flooded paddy test), 13 to 15 days
# Outline: as §1
# [4] = tested on: barnyardgrass (Echinochloa crus-galli); experiment: Test B flooded paddy test; details: for Plant response rating, Barnyardgrass: Flood (flooded paddy test), 13 to 15 days
# Outline: as §1
# [5] = tested on: wheat (Triticum aestivum); experiment: Test A pre-/postemergence plant response
# Outline: (§2)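 Each species was treated preemergence via directed soil spray and postemergence at the one- to two-leaf stage, with compounds formulated in a non-phytotoxic solvent plus surfactant. Visual injury relative to untreated controls was rated after about ten days on a 0–100 scale.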
# [6] = tested on: morningglory (Ipomoea spp.); experiment: Test A pre-/postemergence plant response
# Outline: as §2
# [7] = tested on: velvetleaf (Abutilon theophrasti); experiment: Test A pre-/postemergence plant response
# Outline: as §2
# [8] = tested on: corn (Zea mays); experiment: Test A pre-/postemergence plant response
# Outline: as §2
# [9] = tested on: giant foxtail (Setaria faberii); experiment: Test A pre-/postemergence plant response
# Outline: as §2
# [10] = tested on: large crabgrass (Digitaria sanguinalis); experiment: Test A pre-/postemergence plant response
# Outline: as §2
# [11] = tested on: pigweed (Amaranthus retroflexus); experiment: Test A pre-/postemergence plant response
# Outline: as §2
# [12] = tested on: barnyardgrass (Echinochloa crus-galli); experiment: Test A pre-/postemergence plant response
# Outline: as §2
# [13] = tested on: winter barley (Hordeum vulgare); experiment: Test B postemergence plant response; details: Postemergence
# Excerpt: At the same time, plants selected from these crop and weed species and also winter barley (Hordeum vulgare), canarygrass (Phalaris minor), chickweed (Stellaria media) and windgrass (Apera spica-venti) were planted in pots containing Redi-Earth® planting medium (Scotts Company, 14111 Scottslawn Road, Marysville, Ohio 43041) comprising spaghnum peat moss, vermiculite, wetting agent and starter nutrients and treated with postemergence applications of some of the test chemicals formulated in the same manner. Plants ranged in height from 2 to 18 cm (1- to 4-leaf stage) for postemergence treatments.
# Treated plants and controls were maintained in a greenhouse for 13 to 15 days, after which time all treated plants were visually evaluated and compared to controls. Plant response ratings, summarized in Table B, are based on a scale of 0 to 100 where 0 is no effect and 100 is complete control. A dash (-) response means no test result.
# [14] = 250 g ai/ha, flooded paddy test, visual rating on 0 to 100 scale (0 no effect, 100 complete control) after 13 to 15 days
# [15] = 62 g ai/ha, scale of 0 to 100 where 0 is no effect and 100 is complete control
# [16] = 125 g ai/ha, scale 0 to 100, 0 is no effect, 100 is complete control
# [17] = Flood, 31 g ai/ha, scale 0 to 100 (0 no effect, 100 complete control)
# [18] = Postemergence, 125 g ai/ha, visual injury, 0 to 100 scale (0 no effect, 100 complete control), approx. ten days
# [19] = Postemergence, 500 g ai/ha, visual injury, 0 to 100 scale (0 no effect, 100 complete control), approx. ten days
# [20] = Preemergence, 125 g ai/ha, 0 to 100 scale where 0 is no effect and 100 is complete control, approximately ten days
# [21] = Preemergence, 500 g ai/ha, 0 to 100 scale, 0 = no effect, 100 = complete control
# [22] = Postemergence, 125 g ai/ha, 0 to 100 scale where 0 is no effect and 100 is complete control
structure (smiles),measurement,setting,value
CCCCn1c(-c2cc(F)cc(F)c2)ncc(C(=O)C2=C(O)C3CCC(C3)C2=O)c1=O (stereo not shown) [Compound 245],"Plant response rating, Flood, Sedge, Umbrella",[1]; [14],100
same,"Plant response rating, Sedge, Umbrella",[1]; [15],100
same,"Plant response rating, Sedge, Umbrella",[1]; [16],100
same,"Sedge, Umbrella plant response rating",[1]; [17],60
same,"Plant response rating, Flood, Rice",[2]; [14],90
same,"Plant response rating, Rice",[2]; [15],50
same,"Plant response rating, Rice",[2]; [16],50
same,Rice plant response rating,[2]; [17],50
same,"Plant response rating, Flood, Ducksalad",[3]; [14],100
same,"Plant response rating, Ducksalad",[3]; [15],100
same,"Plant response rating, Ducksalad",[3]; [16],100
same,Ducksalad plant response rating,[3]; [17],100
same,"Plant response rating, Flood, Barnyardgrass",[4]; [14],65
same,"Plant response rating, Barnyardgrass",[4]; [15],0
same,"Plant response rating, Barnyardgrass",[4]; [16],40
same,Barnyardgrass plant response rating,[4]; [17],0
same,"Plant response rating, Wheat",[5]; [18],40
same,Wheat plant response rating,[5]; [19],80
same,"Plant response rating, Wheat",[5]; [20],0
same,"Plant response rating, Wheat",[5]; [21],20
same,"Plant response rating, Morningglory",[6]; [18],100
same,Morningglory plant response rating,[6]; [19],100
same,"Plant response rating, Morningglory",[6]; [20],20
same,"Plant response rating, Morningglory",[6]; [21],60
same,"Plant response rating, Velvetleaf",[7]; [18],100
same,Velvetleaf plant response rating,[7]; [19],100
same,"Plant response rating, Velvetleaf",[7]; [20],70
same,"Plant response rating, Velvetleaf",[7]; [21],100
same,"Plant response rating, Corn",[8]; [22],40
same,Corn plant response rating,[8]; [19],90
same,"Plant response rating, Corn",[8]; [20],0
same,"Plant response rating, Corn",[8]; [21],20
same,"Plant response rating, Foxtail, Giant",[9]; [18],100
same,"Foxtail, Giant plant response rating",[9]; [19],100
same,"Plant response rating, Foxtail, Giant",[9]; [20],80
same,"Plant response rating, Foxtail, Giant",[9]; [21],90
same,"Plant response rating, Crabgrass, Large",[10]; [22],90
same,"Crabgrass, Large plant response rating",[10]; [19],90
same,"Plant response rating, Crabgrass, Large",[10]; [20],80
same,"Plant response rating, Crabgrass, Large",[10]; [21],100
same,"Plant response rating, Pigweed",[11]; [18],100
same,Pigweed plant response rating,[11]; [19],100
same,"Plant response rating, Pigweed",[11]; [20],80
same,"Plant response rating, Pigweed",[11]; [21],90
same,"Plant response rating, Barnyardgrass",[12]; [22],90
same,Barnyardgrass plant response rating,[12]; [19],100
same,"Plant response rating, Barnyardgrass",[12]; [20],40
same,"Plant response rating, Barnyardgrass",[12]; [21],100
same,"Plant response rating, Barley","[13]; 31 g ai/ha, 0 to 100 scale (0 no effect, 100 complete control)",45
same,"Plant response rating, Barley","[13]; 62 g ai/ha, scale 0 to 100 (0 no effect, 100 complete control)",85
same,"Plant response rating, Barley","[13]; 125 g ai/ha, scale 0 (no effect) to 100 (complete control), 13 to 15 days",85
same,"Plant response rating, Barley","[13]; 250 g ai/ha, scale 0 to 100 (0 no effect, 100 complete control), 13 to 15 days",95
